Results as given in patent US11352396B2, “Antimicrobial peptides and methods of using same” (Zoetis Services LLC, priority 2017, dated 2022).

Assays:
[1] = test system: Canine-derived epithelial keratinocyte (CPEK) cells; assay type: cell-based
Outline: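 Viability was read by CellTiter-Glo luminescence after overnight exposure (37 °C, 5% CO2) of canine keratinocytes to a peptide range of 50–0.05 μM. Percent effect used phosphate buffer as the zero control and 0.1% Triton X-100 as the full-effect control.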

[2] = test system: E. coli ATCC 25922; assay type: cell-based; conditions: E. coli 25922, Table 6
Protocol: (§1) Peptides according to SEQ ID NOs as listed in Table 1 were prepared by a commercial manufacturer (CS Bio, Menlo Park, Calif.) using solid phase synthesis. Antimicrobial activity was assessed by determining the Minimal Inhibitory Concentration (MIC) against S. aureus and E. coli. Briefly, Microbroth MICs were performed using CLSI methodology (VET01-S2). For S. aureus and E. coli ATCC strains, TSA with 5% lysed horse blood agar was used for overnight culturing at 37° C. ambient air. A 0.5 mM stock for each peptide was made with cell culture water, 0.01% acetic acid and serially diluted and spotted (10 μL) in a 96-well plate for in assay dose titration concentration of 50 μM to 0.05 μM. 0.5 McFarland Standard of each strain was diluted 1:250 in Mueller-Hinton Broth (MHB). 90 μL of culture suspension was then added upon drug in the 96-well plate for overnight incubation for 18-20 hours. The MIC was determined visually at the first well of no visible growth at the corresponding concentration.

[3] = test system: S. aureus ATCC 29213; assay type: cell-based; set-up: key to SA 29213: MIC in μM (lowest conc. with no visible growth); conditions: S. aureus 29213, Table 6
Protocol: as §1

[4] = test system: cRBC; assay type: cell-based, canine
Outline: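 Percent lysis, measured by absorbance at 405 nm, used 1% Triton X-100 as full effect and phosphate buffer as zero. Peptides spanned 50 µM–0.05 µM and were held with plasma-depleted washed erythrocytes at 37 °C for 1 h.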

[5] = test system: MRSP (Methicillin-Resistant Staphylococcus pseudintermedius); test: MIC against selected strains of MRSP; assay type: cell-based; set-up: key to MIC MRSP 72192 / MIC MRSP 76923 / MR 71994 / Mr 88493 / MR 72035 / MR 72192 / MR 76923 / MR 79882 / MR 80279 / MR 81926 / MR 86002 / MR 87665: MIC in μM (visual, first well with no growth); conditions: for MR 71994: MRSP strain 71994, Table 6; for MR 72035: MRSP strain 72035, Table 6; for MR 72192: MRSP strain 72192, Table 6; for MR 76923: MRSP strain 76923, Table 6; for MR 79882: MRSP strain 79882, Table 6; for MR 80279: MRSP strain 80279, Table 6; for MR 81926: MRSP strain 81926, Table 6; for MR 86002: MRSP strain 86002, Table 6; for MR 87665: MRSP strain 87665, Table 6; for Mr 88493: MRSP strain 88493, Table 6
Outline: (§2)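 MIC read by eye as the first well showing no growth after 18–20 h incubation. Cultures at 0.5 McFarland were diluted 1:250 in Mueller-Hinton broth and exposed to peptide over 50 μM–0.05 μM in the assay, per CLSI VET01-S2 microbroth method.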

[6] = test system: MSSP (Methicillin-Susceptible Staphylococcus pseudintermedius); test: MIC against selected strains of MSSP; assay type: cell-based; set-up: MIC MSSP 49051 / MIC MSSP 81923 / MIC MSSP 84250 / Effect on MSSP 86000 / Effect on MSSP 72036 / Effect on MSSP 78032: unit not given beside the values; Effect on MSSP 71990 / Effect on MSSP 86001 / Effect on MSSP 72191 / Effect on MSSP 76986 / Effect on MSSP 77378 / Effect on MSSP 81923 / Effect on MSSP 84250 / Effect on MSSP 84658: unit: µM; conditions: for SP 49051: S. pseudintermedius 49051, Table 6; for Effect on MSSP 71990: strain 71990, Table 5; for Effect on MSSP 72036: strain 72036, Table 5; for Effect on MSSP 72191: strain 72191, Table 5; for Effect on MSSP 76986: strain 76986, Table 5; for Effect on MSSP 77378: strain 77378, Table 5; for Effect on MSSP 78032: strain 78032, Table 5; for Effect on MSSP 81923: strain 81923, Table 5; for Effect on MSSP 84250: strain 84250, Table 5; for Effect on MSSP 84658: strain 84658, Table 5; for Effect on MSSP 86000: strain 86000, Table 5; for Effect on MSSP 86001: strain 86001, Table 5
Outline: as §2

Substance | CPEK (50 μM) [1] | EC 25922 [2] [µM] | SA 29213 [3] | cRBC (50 μM) [4] | MR 71994 [5] | MR 72035 [5] | MR 72192 [5] | MR 76923 [5] | MR 79882 [5] | MR 80279 [5] | MR 81926 [5] | MR 86002 [5] | MR 87665 [5] | Mr 88493 [5] | SP 49051 [6] | Effect on MSSP 71990 [6] | Effect on MSSP 72036 [6] | Effect on MSSP 72191 [6] | Effect on MSSP 76986 [6] | Effect on MSSP 77378 [6] | also measured
103 (KWCFRVCKRGICYRRCRD; Artificial Antimicrobial peptide) [compound 103] | −0.5 | 6.2 | 25 | 7.9 | 3.1 | 3.1 | 3.1 | 3.1 | 3.1 | 3.1 | 3.1 | 3.1 | 3.1 | 3.1 | 3.1 | 3.1 | 3.1 | 3.1 | 3.1 | 3.1 | Effect on MSSP 78032 [6]: 3.1; Effect on MSSP 81923 [6]: 3.1; Effect on MSSP 84250 [6]: 6.2; Effect on MSSP 84658 [6]: 3.1; Effect on MSSP 86000 [6]: 3.1; Effect on MSSP 86001 [6]: 3.1
104 (KWCFRVCYFGICYRRCRD; Artificial Antimicrobial peptide) [compound 104] | 6.0 | 3.1 | 6.2 | 100.6 | 3.1 | 1.6 | 1.6 | 1.6 | 1.6 | 1.6 | 1.6 | 1.6 | 3.1 | 3.1 | 1.6 | 1.6 | 3.1 | 1.6 | 1.6 | 1.6 | Effect on MSSP 78032 [6]: 1.6; Effect on MSSP 81923 [6]: 3.1; Effect on MSSP 84250 [6]: 3.1; Effect on MSSP 84658 [6]: 1.6; Effect on MSSP 86000 [6]: 3.1; Effect on MSSP 86001 [6]: 1.6
105 (KWCFRVCYRGICYRRCRN; Artificial Antimicrobial peptide) [compound 105] | 8.6 | 3.1 | 6.2 | 97.9 | 1.6 | 1.6 | 1.6 | 1.6 | 0.8 | 1.6 | 1.6 | 1.6 | 1.6 | 3.1 | 1.6 | 1.6 | 1.6 | 1.6 | 1.6 | 0.8 | Effect on MSSP 78032 [6]: 1.6; Effect on MSSP 81923 [6]: 1.6; Effect on MSSP 84250 [6]: 1.6; Effect on MSSP 84658 [6]: 3.1; Effect on MSSP 86000 [6]: 1.6; Effect on MSSP 86001 [6]: 1.6
106 (KWCWRVCYRGICYRRCRD; Artificial Antimicrobial peptide) [compound 106] | 25.2 | 3.1 | 3.1 | 101.5 | 1.6 | 3.1 | 1.6 | 1.6 | 0.8 | 1.6 | 1.6 | 1.6 | 1.6 | 3.1 | 1.6 | 1.6 | 1.6 | 1.6 | 1.6 | 0.8 | Effect on MSSP 78032 [6]: 1.6; Effect on MSSP 81923 [6]: 1.6; Effect on MSSP 84250 [6]: 1.6; Effect on MSSP 84658 [6]: 1.6; Effect on MSSP 86000 [6]: 1.6; Effect on MSSP 86001 [6]: 1.6
